From patent US20240376119A1, “SPIRO COMPOUND AND USE THEREOF” (CSPC Zhongqi Pharmaceutical Technology (Shijiazhuang) Co., …, priority 2021, published 2024) come the findings set out here.

The target of data set [1] is SHP2 (Homo sapiens (Human), UniProt Q06124). Nature of the data set: Assay for the inhibitory effect on the SHP2 enzyme (DiFMUP substrate, fluorescence). It is filed as biochemical. The settings on record: SHP2 activated with SHP-2 activated peptide; DiFMUP 10 μM; read-out: Enzymatic Effect (IC50 on SHP2). The procedure:
1× Assay buffer was prepared. A compound to be tested was diluted with DMSO solvent to a stock concentration of 10 mM. The compound to be tested was first diluted to an intermediate concentration of 1000 μM and then further diluted in a 3-fold gradient using DMSO. Therefore, the intermediate gradient dilution concentration of the compound to be tested was: 1000 μM, 3-fold dilution, 11 gradients. 100 nL of each concentration of the compound in the 384-well LDV echo plate was transferred to a new 384-well ELISA plate (assay plate) (corning, Cat #4514) by the Echo550 instrument. The final concentration of the compound to be tested was 10 μM, 3-fold dilution, 11 gradients in duplicate after 10 μL of the reaction reagent was added. The final DMSO concentration was 1%. For both negative and positive control wells, 100 nL DMSO would be transferred.
A mixed liquor of 2× working SHP2 reagent (0.4 nM) and 0.5 μM SHP-2 activated peptide (BPS bioscience #79319-2) was prepared with 1× enzyme buffer. After the above-mixed liquor was incubated at 25° C. for 60 minutes, 5 μL of activated SHP2 kinase solution was transferred with a pipettor to the compound wells and the Max control wells (Corning, #4514) of the plate. Then 5 μL of 1× kinase buffer was transferred to the Min control wells. The plate was centrifuged at 1000 rpm for 30 seconds, sealed, and incubated in a 25° C. constant-temperature incubator for 30 minutes. A substrate solution of DiFMUP (#D6567, Invitrogen™) was prepared with 1× kinase buffer, and its concentration should be 2 times as the final concentration of the assay (DiFMUP final concentration: 10 μM). 5 μL of the prepared substrate solution was transferred with an electric pipettor into each well of the ELISA plate to start the reaction. The plate was centrifuged at 1000 rpm for 30 seconds, sealed, and incubated in a 25° C. constant-temperature incubator for 60 minutes. Read the plate at the excitation/emission wavelength of 358/455 nm after the ELISA plate was placed on the Spark machine.
The RLU values were collected from Spark and the inhibition rate was calculated with the RLU values. Inhibition rate=(maximum value-sample RLU)/(maximum value-minimum value)*100. “Minimum value” was referred to the RLU of the enzyme-free control, and “maximum value” was referred to the RLU of the DMSO control. The data were fit by using the XLFit Excel module (version 5.4.0.8) to obtain IC50 values, and the results are shown in Table 1.

The subject of data set [2] is human acute myeloid leukemia MV-4-11 cells. Nature of the data set: In vitro inhibitory effect on the proliferation of MV-4-11 cells (MTT, 72 h). The format is cell-based. The settings on record: MV4-11, 72 hours exposure. Here is the method:
The human acute myeloid leukemia MV-4-11 cells used in the assay were purchased from Shanghai Institutes for Biological Sciences, Chinese Academy of Sciences. The complete culture medium required for cell culture was IMDM (GIBCO Company), which was supplemented with 10% fetal bovine serum (GIBCO Company). Cells were cultured in a 37° C., 5% CO2 incubator. The reagents used in the assay included dimethyl sulfoxide (purchased from Tianjin Kemiou Chemical Reagent Co., Ltd.), and MTT (Shanghai Topbiochem Co., Ltd., CAS. NO. 298-93-1). The test substance was sealed and stored at 4° C.
Dimethyl sulfoxide was used as the solvent to fully dissolve the test substance and prepare a stock solution with a concentration of 5×10^−2 mol/L. The stock solution was stored at −20° C. A complete culture medium was used as the diluent, and the test substance was diluted to different concentrations in a gradient for later use. 100 µL/well (2×10^4 cells/well) of a suspension of MV-4-11 cells in the complete culture medium was added to a 96-well culture plate. 100 μL/well of the corresponding test substances at different concentrations were added respectively. 8 concentrations were set for each test substance, and 3 duplicate wells were set for each concentration. The plate was cultured in a 37° C., 5% CO2 incubator. 20 μL/well of MTT was added after 72 hours of exposure to the test substances. The plate was cultured for 4 hours in a 37° C., 5% CO2 incubator. The supernatant was discarded, and 150 μL/well of dimethyl sulfoxide was added. The plate contents were oscillated and mixed evenly. The microplate reader was used to detect the OD value at a wavelength of 550 nm. The well only containing the cell suspension without test substance was a control well, and the well only containing the complete culture medium was a blank well. The inhibition rate of the cell growth was calculated with the following formula: • Inhibition rate=(ODcontrol well-ODtest well)/(ODcontrol well-ODblank well)*100%. According to the inhibition rates at each concentration, SPSS software was used to calculate the half inhibitory concentration IC50 value.

The nature of data set [3]: Mouse pharmacokinetic assay (intragastric administration, plasma HPLC-MS/MS). To be noted: ICR mice. It is filed as in vivo. The procedure:
ICR mice were intragastrically administered with the compound at 10 mg/kg or 20 mg/kg. At different time points (0.25 h, 0.5 h, 1 h, 2 h, 4 h, 8 h, 24 h) after administration, the mice blood was collected from the orbit. The collected whole blood was anticoagulated with heparin sodium and centrifuged at 3000 g to obtain mouse plasma samples. Methanol was added to precipitate proteins. The drug concentration in the mouse plasma after administration was determined by the HPLC-MS/MS method. A drug concentration-time curve was plotted and the pharmacokinetic parameters were calculated. The pharmacokinetic behavior in mice after the compound administration was described by means of non-compartment model statistical moment parameters.

A short description of data set [4]: Mouse tolerance assay (once daily for 7 consecutive days). It is filed as in vivo. To be noted: mouse, in vivo; for Number of animals (number of deaths/total number): 7 days. The procedure: • Assay animals: ICR mice, female, 5 weeks old • Solvent: 2% DMSO+98% (0.5% MC), treated by sufficient vortex and sonicated to obtain a uniform suspension • Assay method: Female ICR mice were divided into 4 groups according to weight balance, with 5 mice in each group. The administration doses were 50 mg/kg and 200 mg/kg respectively. The compound was administrated once daily for 7 consecutive days.

[5] abbreviates: mouse, po, intragastric, 10 mg/kg, plasma.

SHP2, sequence (Q06124 whole entry): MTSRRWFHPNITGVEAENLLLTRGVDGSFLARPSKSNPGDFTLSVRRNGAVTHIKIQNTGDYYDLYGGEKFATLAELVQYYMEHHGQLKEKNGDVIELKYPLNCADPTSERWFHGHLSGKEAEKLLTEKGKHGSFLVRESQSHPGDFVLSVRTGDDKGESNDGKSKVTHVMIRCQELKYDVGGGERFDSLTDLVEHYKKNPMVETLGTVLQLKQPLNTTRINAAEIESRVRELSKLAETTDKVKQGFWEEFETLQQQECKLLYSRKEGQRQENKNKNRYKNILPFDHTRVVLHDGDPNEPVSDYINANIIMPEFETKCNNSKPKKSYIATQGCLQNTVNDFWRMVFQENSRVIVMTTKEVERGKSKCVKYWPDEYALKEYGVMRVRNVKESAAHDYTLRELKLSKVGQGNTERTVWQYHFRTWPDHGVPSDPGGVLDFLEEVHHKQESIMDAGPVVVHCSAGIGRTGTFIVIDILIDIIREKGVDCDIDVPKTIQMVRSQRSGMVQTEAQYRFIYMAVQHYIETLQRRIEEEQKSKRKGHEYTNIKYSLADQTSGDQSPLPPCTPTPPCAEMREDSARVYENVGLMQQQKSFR

For the compound `[2H][C@@]1(N)c2ccccc2OC12CCN(c1nc(N)c(Sc3ccnc(N)c3Cl)nc1C(C)=O)CC2` [Compound 56, (R)-1-(5-amino-6-((2-amino-3-chloropyridine-4-yl)sulfanyl)-3-(3-amino-3-deuterium-spiro[benzofuran-2,4′-piperidine]-1′-yl)pyrazine-2-yl)ethanone], the half-inhibitory concentration (IC50) in data set [1] and in data set [2] was ≤ 20 nM each time. The “exposure and absorption in mice (in words)” value in data set [3] (intragastric administration) is “relatively high exposure in mice and both were well absorbed in vivo”. This compound registered a maximum concentration (Cmax) in data set [3] (setting [5]) of 3570 ng/mL. Besides, in data set [3] (setting [5]), the time of peak concentration (Tmax) stood at 30 min. The AUC(0-t) in data set [3] (mouse, po, intragastric, 10 mg/kg, plasma, read-out: AUC0-24 h) stood at 18300 ng·h/mL. Moreover, in data set [4] (female, ICR), the maximum tolerated dose (MTD) at 7 days is > 200 mg/kg. Further, the “Number of animals (number of deaths/total number)” value in data set [4] (female, ICR, 50 mg/kg) was 0/5F; in data set [4] (female, ICR, 200 mg/kg) it was 0/5F. Also, the “tolerance in mice compared with positive control compound TW-45” value in data set [4] is reported as “significantly better”.
